Measured values taken from PMC4666608, “Metabolic Profiling of Chicken Embryos Exposed to Perfluorooctanoic Acid (PFOA) and Agonists to Peroxisome Proliferator-Activated Receptors” (PLoS ONE, 2015).
Marks after values point to notes of the source that are not given here.

Test system: chicken embryos
Experiment: Metabolic profiling of allantoic fluid (GC-MS, LC-MS, OPLS-DA)
Assay type: in vivo, Gallus gallus domesticus
Conditions: 150 μg/egg
Protocol: Controls were injected with 20 μL vehicle only (DMSO).
Plasma was collected and stored at -70°C.
Metabolites in allantoic fluid and blood plasma were analyzed using gas chromatography-mass spectrometry (GC-MS) and liquid chromatography-mass spectrometry (LC-MS) as described in S1 Methods. Prior to GC-MS and LC-MS analysis, allantoic fluid (100 μL) and blood plasma (50 μL) were extracted. To each sample, 900 μL (allantoic fluid) or 450 μL (blood plasma) of extraction buffer (90/10 v/v methanol:water) including all internal standards were added. Standards for GC-MS were proline, succinic acid, glutamic acid, salicylic acid, alpha-ketoglutarate, putrescine, myristic acid, hexadecanoic acid, cholesterol, and sucrose. Standards for LC-MS were Val-Tyr-Val, Leu-enkephalin, sulfadimethoxine and reserpine. Samples were homogenized by shaking in a bead mill at a frequency of 30 Hz for 3 minutes and proteins were precipitated at +4°C on ice. The samples were centrifuged at +4°C, 14000 rpm, for 10 min. Then, 200 μL supernatant was transferred to a GC microvial and 200 μL was transferred to an LC microvial, and solvents were evaporated. Samples from the four replicate experiments were analyzed using in chronological order and within each replicate experiment the run order of the individual samples was randomized.
Multivariate statistical analyses of metabolite profiles were performed using the software package SIMCA-P version 13.0 (Umetrics, Umeå, Sweden). Data was centered and scaled to variance 1 (UV scaling) prior to modelling. To reduce unintended systematic variation caused by sample processing and instrument drift, GC-MS and LC-MS metabolite amounts (expressed as the area under the chromatographic peak) were normalized by Orthogonal Partial Least Squares analysis (O2PLS) prior to multivariate data analysis. O2PLS finds common (predictive) and unique (orthogonal) variation in two data matrices. If applied to find the common variation between the data matrix containing the measured metabolite concentrations and a matrix containing only the internal standards, the only common (predictive) variation expected is due to the unintended systematic variation. By deleting the contribution of the predictive latent variables, that variation can be removed from the data. Models obtained after this normalization contain in general less latent variables, and this simplification helps when deciding on the number of latent variables to be used. Following normalization, GC-MS and LC-MS data were analyzed together. Initially, a global Principal Component Analysis (PCA) was performed to get an overview of groups and trends and to identify outliers. Projections to latent structures by means of Orthogonal Partial Least Squares Discriminant Analysis (OPLS-DA) was used to model the relationship between the X-matrix (metabolite concentrations) and the Y matrix (class, i.e. exposure group or sex), and to find x-variables that were related to class belonging. OPLS-DA is a supervised prediction and regression method that rotates the projection plane to find the maximum covariance between the data and the class assignment. All groups were first analyzed together in a 5-class OPLS-DA and then each exposure group was analyzed against the control group in a 2-class OPLS-DA. Sex differences were analyzed both using the whole data set and in each group separately using 2-class OPLS-DA, with females and males as the two classes. Only variables with 80% or more nonzero values were included in the statistical models. […] The validity of each model was also checked using CV-ANOVA (ANOVA of the cross-validated residuals). A significance level of p < 0.05 was used. For each model, R ^2 X, R ^2 Y and Q ^2 values were calculated, where R ^2 X is a measure of the fraction of x variation modeled in the extracted latent variables, R ^2 Y is a measure of the fraction of y variation modeled and Q ^2 is an estimate of the predictive ability of the model and is calculated by cross-validation. […]

[1] = GC, tentative 2-Oxovaleric acid

## CC(C)(Sc1ccc(CCN(CCCCC2CCCCC2)C(=O)NC2CCCCC2)cc1)C(=O)O [GW7647, reference compound]
GC
  Mean concentration relative to control, feature Win004_C08: 1.3***
  Mean concentration relative to control, feature Win005_C07: 1.4***
  Mean concentration relative to control, feature Win008_C06: 2.7***
  Mean concentration relative to control, feature Win022_C01: 2.3***
  Mean concentration relative to control, feature Win023_C06: 2.8***
  Mean concentration relative to control, feature win006_C01: 2.4***
GC, tentative 1-Aminocyclopropanecarboxylic acid
  Mean concentration relative to control, feature Win008_C07: 1.4***
GC, tentative 2-Oxoglutaric acid
  Mean concentration relative to control, feature Win023_C03: 2.5***
[1]
  Mean concentration relative to control, feature Win007_C09: 1.5***
  Mean concentration relative to control, feature Win008_C05: 1.6***
GC, tentative 3-Amino-2-piperidone
  Mean concentration relative to control, feature Win018_C04: 1.4***
GC, tentative 3-Hydroxybutanoic acid
  Mean concentration relative to control, feature Win007_C03: 1.3***
GC, tentative Cystathionine
  Mean concentration relative to control, feature Win042_C02: 2.1***
GC, tentative Ketoleucine
  Mean concentration relative to control, feature Win009_C03: 1.5***
GC, tentative Malonic acid
  Mean concentration relative to control, feature Win008_C04: 1.3***
GC, tentative Oxalic acid
  Mean concentration relative to control, feature Win005_C03: 0.8*
GC, tentative Succinic acid
  Mean concentration relative to control, feature Win013_C05: 1.3***
LC
  Mean concentration relative to control, feature 134.0239@1.1350567: 1.6*
  Mean concentration relative to control, feature 145.0538@3.072527: 1.8***
  Mean concentration relative to control, feature 147.0328@3.0722888: 1.7***
  Mean concentration relative to control, feature 160.0323@1.1950632: 1.1*
  Mean concentration relative to control, feature 173.0488@3.0734746: 1.8***
  Mean concentration relative to control, feature 176.0952@1.3890611: 0.6
  Mean concentration relative to control, feature 178.0428@1.7582192: 1.1
  Mean concentration relative to control, feature 180.0048@4.421465: 1.0
  Mean concentration relative to control, feature 189.1159@1.9209185: 0.8*
  Mean concentration relative to control, feature 197.0639@2.1181405: 1.2***
  Mean concentration relative to control, feature 201.012@3.046474: 1.5***
  Mean concentration relative to control, feature 202.0429@2.9548414: 1.1
  Mean concentration relative to control, feature 205.0533@4.421879: 1.0
  Mean concentration relative to control, feature 214.016@2.1190732: 1.3***
  Mean concentration relative to control, feature 226.0107@4.421457: 1.0
  Mean concentration relative to control, feature 236.0816@3.0720985: 1.7***
  Mean concentration relative to control, feature 241.0551@2.3510706: 1.2*
  Mean concentration relative to control, feature 243.1118@2.1537287: 1.0
  Mean concentration relative to control, feature 244.9972@4.421603: 1.0
  Mean concentration relative to control, feature 245.1563@2.2907295: 0.8*
  Mean concentration relative to control, feature 250.0981@3.072492: 1.8***
  Mean concentration relative to control, feature 262.0978@2.7961144: 2.6***
  Mean concentration relative to control, feature 263.0855@2.2847009: 2.1***
  Mean concentration relative to control, feature 270.0441@1.1407775: 0.9
  Mean concentration relative to control, feature 278.0928@3.0723689: 1.8***
  Mean concentration relative to control, feature 279.1248@2.796395: 3.2***
  Mean concentration relative to control, feature 280.1425@2.730277: 1.0
  Mean concentration relative to control, feature 288.1166@2.9551322: 1.2
  Mean concentration relative to control, feature 289.1012@3.249983: 1.8***
  Mean concentration relative to control, feature 289.173@7.5030584: 0.9
  Mean concentration relative to control, feature 294.1242@2.3692534: 1.0
  Mean concentration relative to control, feature 302.0508@3.0722616: 1.6***
  Mean concentration relative to control, feature 305.1682@5.353517: 1.7***
  Mean concentration relative to control, feature 305.1684@5.2955093: 1.6***
  Mean concentration relative to control, feature 308.073@4.4211636: 1.0
  Mean concentration relative to control, feature 310.1181@1.5090439: 1.1
  Mean concentration relative to control, feature 316.0389@3.0725708: 1.5***
  Mean concentration relative to control, feature 320.0626@3.0729218: 1.5***
  Mean concentration relative to control, feature 325.1114@2.1190624: 1.5***
  Mean concentration relative to control, feature 325.1115@2.3554378: 1.3*
  Mean concentration relative to control, feature 333.1335@2.8639288: 0.9
  Mean concentration relative to control, feature 333.2005@6.5291867: 1.3*
  Mean concentration relative to control, feature 335.1866@4.508565: 0.4***
  Mean concentration relative to control, feature 337.1651@1.8737898: 1.4***
  Mean concentration relative to control, feature 344.1424@2.348947: 1.3
  Mean concentration relative to control, feature 348.0553@3.0730357: 1.5***
  Mean concentration relative to control, feature 349.1651@2.4087605: 0.6***
  Mean concentration relative to control, feature 357.1997@6.9691257: 1.1
  Mean concentration relative to control, feature 371.1513@3.0009465: 1.2
  Mean concentration relative to control, feature 375.1819@3.672254: 0.6***
  Mean concentration relative to control, feature 394.167@3.9552917: 0.5***
  Mean concentration relative to control, feature 414.1482@2.118972: 1.5***
  Mean concentration relative to control, feature 466.0837@2.1187525: 1.5***
  Mean concentration relative to control, feature 488.0753@4.419585: 1.0
  Mean concentration relative to control, feature 498.1003@2.1184251: 1.4***
  Mean concentration relative to control, feature 507.1682@2.1238236: 1.4***
  Mean concentration relative to control, feature 580.1426@3.0726147: 2.3***
  Mean concentration relative to control, feature 582.1578@2.1747615: 1.7***
  Mean concentration relative to control, feature 588.1751@2.1182237: 1.5***
  Mean concentration relative to control, feature 594.1337@3.0724604: 2.3***
  Mean concentration relative to control, feature 604.1486@2.1174603: 1.5***
  Mean concentration relative to control, feature 623.183@2.1249466: 1.8***
  Mean concentration relative to control, feature 668.2625@6.4379454: 1.03*
LC, suggested C3H10NO4P
  Mean concentration relative to control, feature 155.0353@0.6447272: 0.6
LC, suggested C10H12N5O7P
  Mean concentration relative to control, feature 345.0497@1.1234403: 1.3*
LC, suggested C13H11N3O4S2
  Mean concentration relative to control, feature 337.0259@4.4213357: 1.0
LC, suggested C13H20N4O7
  Mean concentration relative to control, feature 344.1427@2.1164653: 1.5***
LC, suggested C13H25N5O5
  Mean concentration relative to control, feature 331.184@6.373359: 1.3*
LC, suggested C16H31N3O4S
  Mean concentration relative to control, feature 361.2026@5.6644735: 0.5***
